Test results published in ChEMBL document CHEMBL1201862, “PubChem BioAssay data set” (2004).
Calls of active or inactive are those of the source.

How the values were obtained:
[1] = acridine orange displacement from DNA – biochemical, fluorescence polarization, cherry-pick, artefact control for RAD54 inhibitor project, dose response (AID 651673); type: functional
[2] = target: T1, DNA repair and recombination protein RAD54-like (Homo sapiens, UniProt Q92698); experiment: RAD54 Holliday junction migration blockers – biochemical, fluorescence, cherry-picked samples, dose series, confirmation (AID 651657); type: functional
T1 sequence (Q92698 whole entry): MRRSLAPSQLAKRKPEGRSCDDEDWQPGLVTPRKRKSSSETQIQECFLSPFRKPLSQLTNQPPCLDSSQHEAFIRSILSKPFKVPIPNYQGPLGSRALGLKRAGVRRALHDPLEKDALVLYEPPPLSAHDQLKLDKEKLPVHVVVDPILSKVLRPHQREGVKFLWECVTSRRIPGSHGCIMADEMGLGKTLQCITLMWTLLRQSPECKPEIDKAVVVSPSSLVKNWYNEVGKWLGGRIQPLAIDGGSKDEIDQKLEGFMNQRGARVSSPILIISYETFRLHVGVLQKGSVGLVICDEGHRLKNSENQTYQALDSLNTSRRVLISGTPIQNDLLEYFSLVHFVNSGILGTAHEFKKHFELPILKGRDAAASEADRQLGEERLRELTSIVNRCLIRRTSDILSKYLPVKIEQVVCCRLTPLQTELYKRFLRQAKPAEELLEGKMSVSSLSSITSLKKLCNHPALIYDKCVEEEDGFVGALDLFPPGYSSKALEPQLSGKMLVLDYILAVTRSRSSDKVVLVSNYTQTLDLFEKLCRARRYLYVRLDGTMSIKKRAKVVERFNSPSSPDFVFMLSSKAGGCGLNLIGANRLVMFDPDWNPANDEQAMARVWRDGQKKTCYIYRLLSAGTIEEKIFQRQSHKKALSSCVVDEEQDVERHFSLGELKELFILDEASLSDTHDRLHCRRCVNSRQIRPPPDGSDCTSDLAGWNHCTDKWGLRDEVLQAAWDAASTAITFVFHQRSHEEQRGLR

[3] = target: T2, RNA-binding protein pos-1 (Caenorhabditis elegans, UniProt G5EF15); experiment: disruptors of C. elegans POS-1 RNA interaction – biochemical, fluorescence polarization, dose response (AID 1964);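 also: purified POS-1 fused to maltose binding protein made in E. coli; potency of compounds blocking POS-1 binding to fluorescent RNA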
T2 sequence (G5EF15 whole entry): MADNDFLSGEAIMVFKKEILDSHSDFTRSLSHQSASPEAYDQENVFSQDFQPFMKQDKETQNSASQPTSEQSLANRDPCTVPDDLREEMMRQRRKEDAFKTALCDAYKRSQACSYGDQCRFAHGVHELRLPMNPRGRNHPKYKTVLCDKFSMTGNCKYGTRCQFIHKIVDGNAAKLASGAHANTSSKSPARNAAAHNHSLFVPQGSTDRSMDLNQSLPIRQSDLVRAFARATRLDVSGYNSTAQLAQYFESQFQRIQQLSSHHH

Keap1/Nrf2 = Keap1/Nrf2 (Homo sapiens, UniProt Q14145); experiment: disruptors of Keap1 binding to Nrf2 peptide – biochemical, fluorescence polarization, cherry-picked samples, dose response (AID 588683)
Sequence of Keap1/Nrf2 (Q16236 whole entry): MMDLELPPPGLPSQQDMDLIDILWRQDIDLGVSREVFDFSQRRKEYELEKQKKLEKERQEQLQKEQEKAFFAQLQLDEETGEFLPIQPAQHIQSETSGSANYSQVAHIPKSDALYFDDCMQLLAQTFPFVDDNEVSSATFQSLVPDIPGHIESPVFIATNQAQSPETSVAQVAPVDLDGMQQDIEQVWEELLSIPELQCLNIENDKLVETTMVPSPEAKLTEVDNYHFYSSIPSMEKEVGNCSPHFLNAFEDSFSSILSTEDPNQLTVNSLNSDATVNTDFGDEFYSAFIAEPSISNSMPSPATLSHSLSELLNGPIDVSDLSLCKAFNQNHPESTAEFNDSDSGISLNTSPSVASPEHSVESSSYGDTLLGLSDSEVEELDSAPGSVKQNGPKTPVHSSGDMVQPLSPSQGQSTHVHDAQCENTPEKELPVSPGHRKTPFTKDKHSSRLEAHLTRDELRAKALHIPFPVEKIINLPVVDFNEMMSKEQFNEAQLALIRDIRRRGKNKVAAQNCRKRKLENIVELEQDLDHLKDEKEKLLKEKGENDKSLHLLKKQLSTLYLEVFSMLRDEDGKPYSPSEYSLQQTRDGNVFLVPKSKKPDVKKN
Sequence of Keap1/Nrf2 (Q14145 whole entry): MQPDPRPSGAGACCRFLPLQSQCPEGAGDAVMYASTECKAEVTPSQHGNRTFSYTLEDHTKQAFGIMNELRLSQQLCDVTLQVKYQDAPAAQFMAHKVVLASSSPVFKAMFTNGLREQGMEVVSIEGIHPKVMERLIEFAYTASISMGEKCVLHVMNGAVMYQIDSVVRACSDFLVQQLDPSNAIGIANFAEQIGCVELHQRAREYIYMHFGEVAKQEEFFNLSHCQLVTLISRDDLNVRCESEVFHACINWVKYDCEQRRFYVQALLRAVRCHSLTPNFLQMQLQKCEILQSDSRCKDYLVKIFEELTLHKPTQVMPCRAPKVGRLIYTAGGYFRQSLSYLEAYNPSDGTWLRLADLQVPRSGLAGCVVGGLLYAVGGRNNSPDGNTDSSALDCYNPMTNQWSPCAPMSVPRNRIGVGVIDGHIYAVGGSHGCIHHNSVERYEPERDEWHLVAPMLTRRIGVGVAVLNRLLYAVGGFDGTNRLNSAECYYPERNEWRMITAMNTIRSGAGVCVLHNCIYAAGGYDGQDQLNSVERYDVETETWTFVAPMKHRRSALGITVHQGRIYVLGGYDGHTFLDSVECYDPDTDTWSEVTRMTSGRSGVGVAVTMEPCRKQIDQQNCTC

Troponin, cardiac muscle = Troponin, cardiac muscle (Homo sapiens, UniProt P19429+P45379+P63316); experiment: Fluorescence-based biochemical high throughput dose response assay for activators of the calcium sensitivity of cardiac Regulated Thin Filaments (RTF). [Related pubchem assays (depositor defined):AID493008, AID493018, AID504382, AID504383]; type: protein-complex assay
[4] = target: Dual specificity protein phosphatase 3 (Homo sapiens, UniProt P51452); experiment: VHR1 phosphatase inhibitors, primary screen, biochemical, absorbance, uHTS (AID 1654)
Sequence of Dual specificity protein phosphatase 3 (P51452 whole entry): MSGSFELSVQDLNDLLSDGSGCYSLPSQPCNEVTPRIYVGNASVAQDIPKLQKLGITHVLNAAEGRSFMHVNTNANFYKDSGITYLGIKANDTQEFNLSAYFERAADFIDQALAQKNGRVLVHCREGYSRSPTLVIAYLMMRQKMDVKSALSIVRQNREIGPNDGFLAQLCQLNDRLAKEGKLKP

[5] = target: T3, Long-chain-fatty-acid--AMP ligase FadD28 (Mycobacterium tuberculosis, UniProt P9WQ59); experiment: Fluorescence polarization aasay to screen for inhibitors that compete for the binding of FadD28 to a bisubstrate Measured in Biochemical System Using Plate Reader - 2147-01_Inhibitor_Dose_CherryPick_Activity.; type: functional, Mycobacterium tuberculosis H37Rv
T3 sequence (P9WQ59 whole entry): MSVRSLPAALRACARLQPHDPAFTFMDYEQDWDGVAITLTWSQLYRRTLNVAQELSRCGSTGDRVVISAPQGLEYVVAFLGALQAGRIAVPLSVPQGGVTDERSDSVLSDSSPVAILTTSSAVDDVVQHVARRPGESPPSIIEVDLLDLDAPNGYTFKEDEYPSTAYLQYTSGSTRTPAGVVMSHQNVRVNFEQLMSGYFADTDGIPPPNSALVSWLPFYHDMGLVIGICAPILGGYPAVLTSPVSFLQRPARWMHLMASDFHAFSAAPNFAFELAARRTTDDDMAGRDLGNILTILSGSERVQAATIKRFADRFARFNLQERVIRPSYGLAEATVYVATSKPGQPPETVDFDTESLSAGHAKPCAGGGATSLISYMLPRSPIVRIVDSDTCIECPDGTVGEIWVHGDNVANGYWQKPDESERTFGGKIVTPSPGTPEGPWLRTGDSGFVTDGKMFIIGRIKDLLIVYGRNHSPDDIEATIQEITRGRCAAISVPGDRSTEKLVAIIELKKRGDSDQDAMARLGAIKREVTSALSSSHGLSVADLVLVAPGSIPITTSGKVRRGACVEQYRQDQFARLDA

[6] = target: Kappa-type opioid receptor (Homo sapiens, UniProt P41145); type: functional
Sequence of Kappa-type opioid receptor (P41145 whole entry, the tested form may be a part): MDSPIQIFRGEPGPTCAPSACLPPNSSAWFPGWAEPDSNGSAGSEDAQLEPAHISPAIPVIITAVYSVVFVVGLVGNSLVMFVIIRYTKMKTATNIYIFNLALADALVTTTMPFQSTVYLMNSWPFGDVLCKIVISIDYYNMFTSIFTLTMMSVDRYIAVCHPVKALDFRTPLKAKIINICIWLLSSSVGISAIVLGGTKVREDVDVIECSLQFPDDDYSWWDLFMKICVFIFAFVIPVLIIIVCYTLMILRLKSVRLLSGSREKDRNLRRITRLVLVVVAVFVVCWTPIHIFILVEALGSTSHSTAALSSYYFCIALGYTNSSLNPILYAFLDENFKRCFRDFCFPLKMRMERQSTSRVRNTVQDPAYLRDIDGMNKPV

CHO = CHO cell viability loss, potency – luminescence, cytotoxicity control for TLR9-MyD88 binding inhibitor project, dose response (AID 588339); type: functional, cell-based, hamster; conditions: Cricetulus griseus;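 also: CHO cells stably coexpressing TLR9 and MyD88 fusions from primary screen; compound exposure lasted 48 hours before viability readout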
[7] = target: T4, Type-1 angiotensin II receptor (Homo sapiens, UniProt P30556); experiment: antagonism of angiotensin II type 1 receptor – cell-based, uHTS hits, selectivity assay for APJ receptor antagonist project, dose response (AID 463214); type: functional;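 also: antagonist potency against angiotensin II stimulated AT1 response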
T4 sequence (P30556 whole entry): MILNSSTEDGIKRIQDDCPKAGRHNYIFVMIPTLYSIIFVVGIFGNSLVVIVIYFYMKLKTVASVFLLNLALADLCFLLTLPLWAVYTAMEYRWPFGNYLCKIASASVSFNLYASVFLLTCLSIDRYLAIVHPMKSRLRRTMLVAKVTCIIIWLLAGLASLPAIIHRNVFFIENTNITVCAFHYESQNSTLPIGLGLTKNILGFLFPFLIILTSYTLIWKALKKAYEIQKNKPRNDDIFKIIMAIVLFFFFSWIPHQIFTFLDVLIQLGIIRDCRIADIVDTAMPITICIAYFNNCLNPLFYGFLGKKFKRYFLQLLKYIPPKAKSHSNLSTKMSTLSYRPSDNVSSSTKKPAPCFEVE

Beta Lactamase = Beta Lactamase (Pseudomonas aeruginosa, UniProt Q932Y6); experiment: BLA reporter interference, concentration series – BLA reporter cells, FRET fluorescence, artefact control for TLR9-MyD88 binding inhibitor project, dose response (AID 588341); type: cell-based;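 also: cell based assay in CHO-K1 cells stably expressing beta-lactamase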
Sequence of Beta Lactamase (Q932Y6 whole entry): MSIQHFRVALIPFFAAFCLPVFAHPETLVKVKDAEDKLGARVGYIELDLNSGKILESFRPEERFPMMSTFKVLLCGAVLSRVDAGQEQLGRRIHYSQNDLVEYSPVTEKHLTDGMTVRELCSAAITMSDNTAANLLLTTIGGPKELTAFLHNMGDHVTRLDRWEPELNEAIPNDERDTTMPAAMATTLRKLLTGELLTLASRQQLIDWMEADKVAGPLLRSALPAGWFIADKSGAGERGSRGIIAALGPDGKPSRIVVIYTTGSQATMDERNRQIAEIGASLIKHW

Vero = experiment: viability of Vero cells under compound – cytotoxicity control for flavivirus capping enzyme inhibitors (AID 588742); type: functional; conditions: Chlorocebus sabaeus
BJ = experiment: BJ-TERT fibroblast viability loss – cell-based, RAS-independent, luminescence, dose response (AID 1933); type: functional; conditions: Homo sapiens
[8] = loss of viability in HepG2 cells – cell-based, CellTiter-Glo, cherry-picked, cytotoxicity control for Shn3 inhibitor project, dose response (AID 624134); type: functional
[9] = target: Matrix metalloproteinase-14 (Homo sapiens, UniProt P50281); experiment: Dose Response confirmation of uHTS hits for a small molecule inhibitors of MT1-MMP activation in a fluorescence assay set 1.; type: functional

SMILES: CCN(CC)CCN1C(=O)c2cccc3cc(N)cc(c23)C1=O
- AC50 [1]: 56.9 µM (active)
- AC50 [2]: 8.83 µM (active)
- EC50 [3]: 6.62 µM (active)
- AC50 (Keap1/Nrf2): > 52 µM (inactive)
- EC50 (Troponin, cardiac muscle): 21.3 µM (inactive)

SMILES: O=C(O)c1cccc(-n2cccc2/C=C2/NC(=O)N(c3ccc(Cl)cc3)C2=O)c1
- IC50 [4]: < 0.98 µM (inactive)
- AC50 [5]: 58 µM (active)

SMILES: C=C1C(=O)O[C@@H]2C[C@@H](C)[C@@H]3C=CC(=O)[C@@]3(C)[C@@H](OC(=O)CC(=O)O[C@H]3[C@@H]4C(=C)C(=O)O[C@@H]4C[C@@H](C)[C@@H]4C=CC(=O)[C@]43C)[C@H]12
- IC50 [6]: 13.4 µM (active)
- IC50 (CHO): 0.147 µM (active)
- IC50 [7]: 6.05 µM (active)
- IC50 (Beta Lactamase): 17.9 µM (inactive)
- CC50 (Vero): 1.64 µM (active)
- EC50 (BJ): 0.354 µM (inconclusive)
- AC50 [8]: 0.895 µM (active)

SMILES: O=S(=O)(O)c1cc(Cl)cc(N=Nc2ccc(O)cc2O)c1O
- IC50 [9]: 1.41 µM (active)
